The target of assay [1] is T1, BT474 cells Her-2 receptor TK phosphorylation stimulated by Her-2 (Homo sapiens, UniProt P04626).
T1 construct: against BT474 cells; endogenous in cells; host or cells: BT474 cells
Put plainly: Inhibition of BT474 cells Her-2 receptor TK phosphorylation. The class given is cell-based. As to the method:
Following literature procedured, inhibitory activity of representative compounds against BT474 cells Her-2 receptor TK phosphorylation stimulated by Her-2 was measured, and partial results are listed in Table 6.

The subject of assay [2] is BT474 cells. Put plainly: Cell growth inhibition assay (MTS assay), BT474. Particulars: Homo sapiens, BT-474, 48 h, read-out: Growth inhibition activity (EC50) BT474.
Procedure: (§1) Cell Growth Inhibition Assay (MTS Assay)
(§2) A431: human epithelial adenocarcinoma cell strain; LoVo: human colorectal cancer cell strain; BT474: breast cancer; SK-Br-3: breast cancer; SIT solution (SIGMA); RPMI1640 culture solution; phosphoric acid buffer; Dimethyl Sulphoxide (DMSO); MTS solution (Promega), 96 well cell culture plate, representative anti-cancer compounds.
(§3) The cells were cultured overnight under the condition of 5% CO2 and 37° C. The next day, representative anti-cancer compounds (between 3 and 10 mM) were dissolved by dimethyl sulphoxide (DMSO) as a mother solution. Adriamycin was used as positive control, DMSO was used as negative control. According to experimental design, the mother solution was diluted and added to the 96 well cell culture plate, cultured for 48 hours under the condition of 5% CO2 and 37° C. Subsequently, 20 μL of MTS solution was added to each well of the 96 well cell culture plate and cultured for another 2 to 4 hours under the condition of 5% CO2 and 37° C. Absorbance was read at 490 nm wavelength, and converted into cell survival rate.
(§4) For each concentration, there two measurements were taken and the average was obtained.
Assay [3] concerns colorectal cancer LoVo cells. The assay can be described thus: Cell growth inhibition assay (MTS assay), LoVo. The class given is cell-based. Particulars: Homo sapiens, 48 hours.
For assay [4], the target named is T2, A431 cells EGFR-TK phosphorylation stimulated by EGF (Homo sapiens, UniProt P00533).
T2 construct: against A431 cells EGFR-TK; endogenous in cells; host or cells: A431 cells
The assay can be described thus: Inhibition of cellular EGFR-TK phosphorylation stimulated by EGF in A431 cells. It is filed as cell-based. Particulars: for inhibition at 3 µM: A-431, concentration of 3 μM, A431 cells, EGF stimulated, one-time measurement at a single concentration (preliminary selection), NA = No activity, read-out: Inhibition Percent (%). As to the method:
Inhibition Experiment of Cellular Epidermal Growth Factor Receptor Tyrosine Kinase
1) A431 cells were cultured in a medium which was prepared by adding 10% FCS into another medium comprising 50% DMEM and 50% F12.
2) A431 cells grown in six-well plates were cultured in a serum-free medium for 24 hours. During the 24 hour period the medium was replenished once after 12 hours.
3) A solution containing a compound to be assessed was added the A431 cells and the cells were cultured for 2 hours, supplemented twice by a medium free of the compound, and then EGF (100 ng/well) was added, and cultured for 5 minutes.
4) A431 cell homogenate was prepared by Laemili buffer which comprised 2% sodium dodecyl sulfonate (SDS), 5% 2-mercaptoethanol, 10% glycerol and 5 mM Tris (pH 6.8).
5) The A431 cell homogenate was heated for 5 minutes at 100° C.
6) Proteins in the A431 cell homogenates were separated by PAGE and transferred onto a nitrocellulose membrane, and an infrared reading was obtained.

Another assay has as its system SK-Br-3 cells. Put plainly: Cell growth inhibition assay (MTS assay), SK-Br-3. Particulars: Homo sapiens, SK-BR-3, 48 h, read-out: Growth inhibition activity (EC50) SK-Br-3. On the technique in general: Formazan colour is commonly taken as a measure of viable cells.
Assay [5] deals with A431 cells. The assay can be described thus: Cell growth inhibition assay (MTS assay), A431. The class given is cell-based. Particulars: Homo sapiens.
Assay [6] has as its system BT474 cells. The assay can be described thus: BT-474 cell growth inhibition assay (SRB assay). It is filed as cell-based. Particulars: Homo sapiens, concentration of 3 μM, 72 h, read-out: Inhibition Percent (%). How it is done:
BT-474 Cell Growth Inhibition Assay (SRB Assay)
BT-474 human breast cancer cell lines were kindly provided by Dr. Changnian Liu, Pharmaron Beijing Co., Ltd.
BT-474 cells were cultured in 37° C., 5% CO2, saturated humidity until logarithmic phase. Discarded culture medium, washed cells once by PBS. Added 1 ml Trypsin/EDTA solution, stood at 37° C. for 5 min, allowed the cells to detach. Added culture medium, adjusted the cells density to 1×10^5 cells/ml.
Day 0, added 100 μl/well cells suspension to 96-well cell culture plates. Incubated overnight to let the cells attach completely.
Day 1, compounds (2 mM in DMSO as stock solution) was diluted to 20 μM in EMEM. Then a fourfold serial dilution was made. These diluted compounds were made as 10× reaction solutions, and the concentration of DMSO was kept at 1%.
Added 80 μl culture medium and 20 μl 10× compound reaction solution to the testing wells, or vehicle control to the control wells. Co-incubated cells with compounds for another 72 h.
Day 3, fixed cellular protein by the addition of 100 μl/well of 10% TCA (diluting from 50% TCA) at 4° C. for 1 h. Rinsed TCA using plate washer, and washed five times using distilled water. Removed the residual wash solution with a piece of absorbent paper. Added 100 μl/well 0.4% SRB solution, allowed a 15-30 min staining period. Removed the SRB, and washed the culture plates five times using 1% acetic acid. Removed the residual wash solution with a piece of absorbent paper. Air-dried the culture plates, dissolved the protein-bound dye with 100 μl/well of 10 mM Tris base solution. Shook the plates until the dye was dissolved completely.
(In general: In SRB staining, fixed cells bind dye roughly in proportion to their protein.)

Assay [7] has as its system A431 cells. The assay can be described thus: A431 cell growth inhibition assay (MTT assay). Particulars: Homo sapiens; for EC50: A-431, 72 hours (Table 11); for inhibition at 3 µM: A-431, concentration of 3 μM, 72 hours, read-out: Inhibition Percent (%). It is filed as cell-based. The procedure, abridged:
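A431 epidermoid carcinoma cells in DMEM/F12 (1:1) with 10% FBS were seeded at 2.5×10^4 cells/mL, attached overnight, then exposed to compound (final 10 μM to 1.52 nM) for 72 h at 37° C, 5% CO2. Viability was read by MTT (0.5 mg/mL, 4 h), formazan dissolved in DMSO, absorbance 490 nm.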

[8] abbreviates: A-431, A431 cells, MTS, 48 hours, read-out: Growth inhibition activity EC50.

Here are results for 15 molecules from patent US8765946B2, “Methods of preparing and using quinazoline and quinoline derivatives” (priority 2006, dated 2014).

Each structure is given as a SMILES string.

T2 sequence (P00533 25-1210): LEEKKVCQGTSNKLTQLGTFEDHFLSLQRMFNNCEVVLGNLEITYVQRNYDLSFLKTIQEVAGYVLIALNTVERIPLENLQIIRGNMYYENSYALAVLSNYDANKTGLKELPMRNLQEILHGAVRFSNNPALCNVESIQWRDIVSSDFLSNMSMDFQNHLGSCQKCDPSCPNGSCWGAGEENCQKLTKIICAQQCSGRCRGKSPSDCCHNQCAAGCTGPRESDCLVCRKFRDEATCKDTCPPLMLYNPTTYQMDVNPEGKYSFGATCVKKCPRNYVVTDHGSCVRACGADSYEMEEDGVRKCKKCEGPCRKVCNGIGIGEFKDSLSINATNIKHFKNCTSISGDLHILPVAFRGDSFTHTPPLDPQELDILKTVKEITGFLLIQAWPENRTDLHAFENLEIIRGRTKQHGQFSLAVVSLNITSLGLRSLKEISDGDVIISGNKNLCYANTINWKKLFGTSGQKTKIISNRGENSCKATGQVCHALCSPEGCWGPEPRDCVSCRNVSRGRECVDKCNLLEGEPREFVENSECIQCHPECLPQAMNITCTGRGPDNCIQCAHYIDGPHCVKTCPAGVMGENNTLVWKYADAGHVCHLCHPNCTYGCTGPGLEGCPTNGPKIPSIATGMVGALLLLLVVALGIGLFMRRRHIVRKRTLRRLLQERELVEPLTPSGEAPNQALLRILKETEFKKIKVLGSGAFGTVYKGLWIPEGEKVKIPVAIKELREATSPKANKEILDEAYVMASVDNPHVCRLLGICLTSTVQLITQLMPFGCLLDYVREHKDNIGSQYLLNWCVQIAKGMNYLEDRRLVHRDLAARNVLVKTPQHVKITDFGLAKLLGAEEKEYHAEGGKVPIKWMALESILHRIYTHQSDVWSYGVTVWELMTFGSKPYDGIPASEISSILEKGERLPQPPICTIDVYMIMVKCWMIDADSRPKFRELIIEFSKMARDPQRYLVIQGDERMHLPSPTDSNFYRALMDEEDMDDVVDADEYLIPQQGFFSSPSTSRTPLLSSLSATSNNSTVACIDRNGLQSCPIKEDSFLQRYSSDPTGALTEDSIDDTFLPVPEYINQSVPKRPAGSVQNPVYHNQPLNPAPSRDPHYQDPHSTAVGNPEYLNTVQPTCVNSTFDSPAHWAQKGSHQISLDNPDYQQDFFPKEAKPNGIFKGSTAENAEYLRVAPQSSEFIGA
T1 sequence (P04626 23-1255): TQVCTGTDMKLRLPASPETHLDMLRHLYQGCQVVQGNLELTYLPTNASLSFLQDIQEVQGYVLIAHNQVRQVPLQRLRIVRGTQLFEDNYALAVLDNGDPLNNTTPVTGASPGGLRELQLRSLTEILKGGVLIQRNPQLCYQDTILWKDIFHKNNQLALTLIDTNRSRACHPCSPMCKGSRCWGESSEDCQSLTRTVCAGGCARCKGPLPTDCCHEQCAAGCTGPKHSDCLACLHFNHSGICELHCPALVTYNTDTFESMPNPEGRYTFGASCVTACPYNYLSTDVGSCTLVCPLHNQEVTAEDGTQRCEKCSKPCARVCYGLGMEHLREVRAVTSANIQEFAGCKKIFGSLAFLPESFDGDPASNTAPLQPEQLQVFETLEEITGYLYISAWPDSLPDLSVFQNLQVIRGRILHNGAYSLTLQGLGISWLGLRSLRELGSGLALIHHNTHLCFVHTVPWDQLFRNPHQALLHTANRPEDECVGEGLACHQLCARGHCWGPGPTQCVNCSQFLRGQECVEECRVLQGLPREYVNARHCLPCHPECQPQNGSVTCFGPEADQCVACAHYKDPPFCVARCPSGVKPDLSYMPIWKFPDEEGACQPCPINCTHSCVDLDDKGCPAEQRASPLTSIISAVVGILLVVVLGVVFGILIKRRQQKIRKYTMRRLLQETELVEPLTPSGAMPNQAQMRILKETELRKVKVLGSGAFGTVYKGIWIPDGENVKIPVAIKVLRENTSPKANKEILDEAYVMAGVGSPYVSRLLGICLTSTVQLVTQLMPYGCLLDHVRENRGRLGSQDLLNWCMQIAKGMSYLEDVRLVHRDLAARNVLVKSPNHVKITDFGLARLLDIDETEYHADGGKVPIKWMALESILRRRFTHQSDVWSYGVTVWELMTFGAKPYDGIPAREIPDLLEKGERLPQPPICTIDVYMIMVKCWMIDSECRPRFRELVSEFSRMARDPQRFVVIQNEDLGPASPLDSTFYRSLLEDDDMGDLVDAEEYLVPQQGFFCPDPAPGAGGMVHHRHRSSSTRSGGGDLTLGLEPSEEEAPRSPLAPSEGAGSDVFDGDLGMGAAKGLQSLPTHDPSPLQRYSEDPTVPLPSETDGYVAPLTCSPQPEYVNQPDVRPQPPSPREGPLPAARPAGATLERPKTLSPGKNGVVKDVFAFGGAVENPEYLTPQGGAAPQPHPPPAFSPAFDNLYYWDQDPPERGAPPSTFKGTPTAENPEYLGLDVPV
Procedure for SK-Br-3 cells: as §1, §2, §3, §4

In the case of `COc1cc2ncnc(Nc3ccc(F)c(Cl)c3)c2cc1NC(=O)C=C1CCN(C)CC1` [Example 72, N-(4-(3-chloro-4-fluorophenylamino)-7-methoxyquinazolin-6-yl)-2-(1-methylpiperidin-4-ylidene)acetamide], the 50% effective concentration (EC50) (as a rule, the midpoint of the concentration-response curve) in assay [1] stood at 820 nM; in the assay with BT474 cells [2] it was 1310 nM; in assay [3] it was 1800 nM; in the assay on SK-Br-3 cells, 800 nM; in the assay on A431 cells [5] (setting [8]) it was 0.09 µM. The inhibition (commonly the drop in the measured response relative to a control, in per cent) at 3 µM in assay [4] was 97%.
Consider `COc1cc2ncnc(Nc3ccc(OCc4ccccn4)c(Cl)c3)c2cc1NC(=O)C=C1CCNCC1` [Example 108, N-(4-(3-chloro-4-(pyridin-2-ylmethoxy)phenylamino)-7-methoxyquinazolin-6-yl)-2-(piperidin-4-ylidene)acetamide], for which the EC50 in assay [1] turned out to be 180 nM; in the assay with BT474 cells [2], 1570 nM; in assay [3], 7000 nM; with SK-Br-3 cells, 530 nM; in the assay on A431 cells [5] (setting [8]) it was 3 µM.
`CCOc1cc2ncc(C#N)c(Nc3ccc(F)c(Cl)c3)c2cc1NC(=O)C=C1CCNCC1` [Example 150, N-(4-(3-chloro-4-fluorophenylamino)-3-cyano-7-ethoxyquinolin-6-yl)-2-(piperidin-4-ylidene)acetamide]: the results for the EC50 (in assay [1]; with A431 cells [7]) were 260 nM and 170 nM, respectively. The figures for the inhibition at 3 µM (in assay [4]; in the assay on BT474 cells [6]; in the assay with A431 cells [7]) were 46%, 56% and 95%, respectively.
With `COc1cc2ncnc(Nc3ccc(OCc4cccc(F)c4)c(Cl)c3)c2cc1NC(=O)C=C1CCNCC1` [Example 105, N-(4-(4-(3-fluorobenzyloxy)-3-chlorophenylamino)-7-methoxyquinazolin-6-yl)-2-(piperidin-4-ylidene)acetamide], the EC50 in assay [1] turned out to be 480 nM. For the same molecule, the inhibition at 3 µM in assay [4] is 44%.
As for `C#Cc1cccc(Nc2ncnc3cc(OC)c(NC(=O)C=C4CCNCC4)cc23)c1` [Example 42, N-(4-(3-ethynylphenylamino)-7-methoxyquinazolin-6-yl)-2-(piperidin-4-ylidene)acetamide], the EC50 was found to be 3000 nM in assay [3] and 0.12 µM in the assay on A431 cells [5] (setting [8]).
As for `COCCN1CCC(=CC(=O)Nc2cc3c(Nc4ccc(F)c(Cl)c4)ncnc3cc2OC)CC1` [Example 73, N-(4-(3-chloro-4-fluorophenylamino)-7-methoxyquinazolin-6-yl)-2-(1-(2-methoxyethyl)piperidin-4-ylidene)acetamide], the EC50 worked out at 1700 nM in assay [1]; 21500 nM with BT474 cells [2]; 8000 nM in assay [3]; 2310 nM with SK-Br-3 cells; 0.63 µM in the assay on A431 cells [5] (setting [8]). Besides, the inhibition at 3 µM in assay [4] was 82%.
On to `CS(=O)(=O)CCNCc1ccc(-c2ccc3ncnc(Nc4ccc(OCc5cccc(F)c5)c(Cl)c4)c3c2)o1` [Lapatinib, reference compound], for which the EC50 worked out at 120 nM with BT474 cells [2]; 70 nM in the assay on SK-Br-3 cells; 1.19 µM in the assay on A431 cells [5] (A-431, 48 h, read-out: Growth inhibition activity EC50 (μM)).
In the case of `COc1cc2ncnc(Nc3ccc(F)c(Cl)c3)c2cc1NC(=O)C=C1CCNCC1` [Example 43, N-(4-(3-chloro-4-fluorophenylamino)-7-methoxyquinazolin-6-yl)-2-(piperidin-4-ylidene)acetamide], the EC50 in assay [1] is 350 nM; in the assay with BT474 cells [2], 610 nM; in assay [3], 1500 nM; in the assay on SK-Br-3 cells, 520 nM; with A431 cells [5] (setting [8]) it was 0.11 µM. Also, in assay [4], the inhibition at 3 µM came to 91%.
Regarding `COc1cc2ncnc(Nc3cccc(Br)c3)c2cc1NC(=O)C=C1CCNCC1` [Example 38, N-(4-(3-bromophenylamino)-7-methoxyquinazolin-6-yl)-2-(piperidin-4-ylidene)acetamide], the figures for the concentration giving a half-maximal response (EC50) (in assay [3]; in the assay on A431 cells [5] (setting [8])) were 1600 nM and 0.014 µM, respectively. Moreover, the inhibition at 3 µM in assay [4] was determined as 94%.
Consider `C#Cc1cccc(Nc2ncnc3cc(OC)c(NC(=O)C=C4CCN(C)CC4)cc23)c1` [Example 51, N-(4-(3-ethynylphenylamino)-7-methoxyquinazolin-6-yl)-2-(1-methylpiperidin-4-ylidene)acetamide], for which the EC50 in assay [3] stood at 7600 nM; in the assay on A431 cells [5] (setting [8]), 0.12 µM. In addition, the inhibition at 3 µM in assay [4] was determined as 94%.
For `O=C(C=C1CCNCC1)Nc1ccc2ncnc(Nc3ccc4[nH]ccc4c3)c2c1` [Example 41, N-(4-(1H-indol-5-ylamino)quinazolin-6-yl)-2-(piperidin-4-ylidene)acetamide], in assay [4], the inhibition at 3 µM stood at 71%. Besides, the EC50 with A431 cells [5] (setting [8]) amounted to 1.5 µM.
For `CCOc1cc2ncc(C#N)c(Nc3cccc(Br)c3)c2cc1NC(=O)C=C1CCNCC1` [Example 154, N-(4-(3-bromophenylamino)-3-cyano-7-ethoxyquinolin-6-yl)-2-(piperidin-4-ylidene)acetamide], the values for the EC50 (in assay [3]; with A431 cells [5] (setting [8])) were 3100 nM and 0.11 µM, respectively.
In the case of `COc1cccc2c1C(=O)c1c(O)c3c(c(O)c1C2=O)C[C@@](O)(C(=O)CO)C[C@@H]3O[C@H]1C[C@H](N)[C@H](O)[C@H](C)O1` [Adriamycin, reference compound], the response in assay [3] was half-maximal at 1500 nM (EC50).
Consider `CCOc1cc2ncc(C#N)c(Nc3ccc(OCc4ccccn4)c(Cl)c3)c2cc1NC(=O)C=C1CCNCC1` [Example 143, N-(4-(3-chloro-4-(pyridin-2-ylmethoxy)phenylamino)-3-cyano-7-ethoxyquinolin-6-yl)-2-(piperidin-4-ylidene)acetamide], for which the inhibition at 3 µM is 96% in assay [4], 55% with BT474 cells [6] and 70% in the assay on A431 cells [7]. In addition, the figures for the EC50 with A431 cells [7] and in the assay with A431 cells [5] (setting [8]) were 1450 nM and 0.25 µM, respectively.
Consider `C[C@H](Nc1ncnc2ccc(NC(=O)C=C3CCNCC3)cc12)c1ccccc1` [Example 34, N-(4-((S)-1-phenylethylamino)quinazolin-6-yl)-2-(piperidin-4-ylidene)acetamide], for which the EC50 in assay [4] (A431 cells EGFR-TK phosphorylation stimulated by EGF (Table 4)) came out at 760 nM; in the assay on A431 cells [5] (setting [8]), 13 µM. Besides, the inhibition at 3 µM in assay [4] was determined as 68%.
